Three molecules from paper PMC11011526, “Identification of Inhibitors of the Disease-Associated Protein Phosphatase Scp1 Using Antibody Mimetic Molecules” (International Journal of Molecular Sciences, 2024) can be followed below.

Assay [1] deals with T1, Scp2 (Homo sapiens, UniProt O14595).
T1 construct: gene CTDSP2; recombinant, GST tag and Myc-His6 tag
T1 sequence (O14595 1-271): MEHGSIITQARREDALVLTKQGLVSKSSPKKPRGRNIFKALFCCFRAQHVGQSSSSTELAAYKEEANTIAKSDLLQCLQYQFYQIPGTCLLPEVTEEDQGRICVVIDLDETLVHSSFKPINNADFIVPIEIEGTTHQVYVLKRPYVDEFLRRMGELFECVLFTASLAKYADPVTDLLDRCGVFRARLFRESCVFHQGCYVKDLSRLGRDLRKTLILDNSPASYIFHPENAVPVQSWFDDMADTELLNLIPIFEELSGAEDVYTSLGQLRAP
As to the kind of experiment: colorimetric pNPP phosphatase assay, absorbance […] nm. In kind it is biochemical. Particulars: 20 mM Na-maleate pH 5.5, 10 mM MgCl2; 10 mM pNPP; 37 °C; 7 min.

The target in assay [2] is T2, Scp3 (Homo sapiens, UniProt O15194).
T2 construct: gene CTDSPL; recombinant, GST tag and Myc-His6 tag
T2 sequence (O15194 1-276): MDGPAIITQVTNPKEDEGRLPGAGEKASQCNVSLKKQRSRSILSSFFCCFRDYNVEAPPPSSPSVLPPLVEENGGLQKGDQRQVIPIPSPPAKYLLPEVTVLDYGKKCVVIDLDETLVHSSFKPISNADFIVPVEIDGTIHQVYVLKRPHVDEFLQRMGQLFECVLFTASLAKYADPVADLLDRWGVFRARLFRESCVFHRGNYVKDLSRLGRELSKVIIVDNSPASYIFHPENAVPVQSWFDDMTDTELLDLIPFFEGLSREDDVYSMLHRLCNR
Described as above. Particulars: 20 mM Na-maleate pH 5.5, 10 mM MgCl2; 10 mM pNPP; 37 °C; 7 min. The assay is classed as biochemical.

The target in assay [3] is T3, Scp1 (Homo sapiens, UniProt Q9GZU7).
T3 construct: gene CTDSP1; recombinant in E. coli Rosetta, Talon purified; His6-Scp1 (kinetics) or GST-Scp1-Myc-His6 (specificity assay)
T3 sequence (Q9GZU7 1-261): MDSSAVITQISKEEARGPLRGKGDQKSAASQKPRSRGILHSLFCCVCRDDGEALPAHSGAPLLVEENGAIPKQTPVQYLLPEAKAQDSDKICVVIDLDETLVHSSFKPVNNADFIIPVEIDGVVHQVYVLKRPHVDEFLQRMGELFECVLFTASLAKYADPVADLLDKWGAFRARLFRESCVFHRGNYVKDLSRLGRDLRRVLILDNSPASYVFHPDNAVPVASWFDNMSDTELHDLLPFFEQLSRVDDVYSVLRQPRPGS
The assay is described as above. In kind it is biochemical. Particulars: 20 mM Na-maleate pH 5.5, 10 mM MgCl2; His6-Scp1 10 nM; no added adnectin.

For assay [4], the target named is T4, Fcp1 (Homo sapiens, UniProt Q9Y5B0).
T4 construct: gene CTDP1; recombinant, GST tag and Myc-His6 tag
T4 sequence (Q9Y5B0 1-961): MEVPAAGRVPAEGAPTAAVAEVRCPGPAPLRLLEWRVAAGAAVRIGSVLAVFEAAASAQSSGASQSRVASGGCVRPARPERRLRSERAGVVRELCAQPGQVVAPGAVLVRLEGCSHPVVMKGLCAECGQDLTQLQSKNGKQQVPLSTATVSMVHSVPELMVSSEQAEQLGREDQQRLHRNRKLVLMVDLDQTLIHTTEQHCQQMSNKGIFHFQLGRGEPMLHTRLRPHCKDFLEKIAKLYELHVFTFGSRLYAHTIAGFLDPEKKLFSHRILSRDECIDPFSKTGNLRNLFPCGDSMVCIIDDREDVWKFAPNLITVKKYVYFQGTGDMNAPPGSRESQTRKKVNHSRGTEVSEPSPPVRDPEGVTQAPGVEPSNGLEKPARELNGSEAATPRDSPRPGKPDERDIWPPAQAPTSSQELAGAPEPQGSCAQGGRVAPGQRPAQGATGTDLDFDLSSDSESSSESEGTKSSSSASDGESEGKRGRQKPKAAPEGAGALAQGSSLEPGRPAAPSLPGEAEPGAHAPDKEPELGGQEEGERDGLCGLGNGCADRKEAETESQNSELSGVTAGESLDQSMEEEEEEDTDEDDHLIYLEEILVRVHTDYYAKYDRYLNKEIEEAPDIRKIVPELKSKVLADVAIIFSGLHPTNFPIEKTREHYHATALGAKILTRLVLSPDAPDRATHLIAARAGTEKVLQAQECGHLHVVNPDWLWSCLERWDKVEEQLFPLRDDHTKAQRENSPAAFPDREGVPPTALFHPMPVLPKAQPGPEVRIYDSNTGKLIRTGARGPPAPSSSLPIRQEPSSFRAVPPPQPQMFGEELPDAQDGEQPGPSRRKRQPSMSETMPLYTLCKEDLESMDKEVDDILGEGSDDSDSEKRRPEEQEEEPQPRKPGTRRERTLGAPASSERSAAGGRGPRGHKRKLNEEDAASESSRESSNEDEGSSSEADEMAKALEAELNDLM
The assay is described as above. The assay is classed as biochemical. Particulars: 20 mM Na-maleate pH 5.5, 10 mM MgCl2; 10 mM pNPP; 37 °C; 60 min.

The target of assay [5] is T3, Scp1. As to the kind of experiment: competition ELISA against FG-1Adn binding. Particulars: 100 µM rabeprazole; 20 mM Na-maleate pH 5.5, 150 mM NaCl, 10 mM MgCl2; R.T.; indirect, displacement of adnectin FG-1Adn. Background: An ELISA detects its analyte on a solid surface through an enzyme-linked reagent.
For assay [6], the target named is FG-1Adn (human). Kind of assay: BLI; BLItz system, Advanced Kinetics mode; biotinylated FG-1Adn loaded on streptavidin biosensors; 20 mM Na-maleate (pH 5.5), 150 mM NaCl, 10 mM MgCl2, 0.05% Tween; 250 nM Scp1, 120 s association, 120 s dissociation; 1:1 Langmuir model. Background: In BLI a coated tip is dipped into the sample, and binding shifts an interference pattern.

Turning to `O=[N+]([O-])c1ccc(OP(=O)(O)O)cc1` [pNPP], the “colorimetric pNPP phosphatase assay, absorbance 410 nm” value in assay [1] is on record as “inhibitory effects of FG-1Adn inhibition against FCP/SCP phosphatases using pNPP as a substrate”; in assay [2], “inhibitory effects of FG-1Adn inhibition against FCP/SCP phosphatases using pNPP as a substrate”; in assay [3] it was “Lineweaver–Burk plot analysis was performed using pNPP as a substrate”; in assay [4], “inhibitory effects of FG-1Adn inhibition against FCP/SCP phosphatases using pNPP as a substrate”.

As for `COCCCOc1ccnc(C[S+]([O-])c2nc3ccccc3[nH]2)c1C` (stereo not drawn) [rabeprazole], the “almost complete inhibition of FG-1Adn binding” value in assay [5] is given as “rabeprazole almost completely inhibited the binding of FG-1Adn to Scp1”.

B1: Scp1 (enzyme)
chain: T3 sequence (Q9GZU7 1-261)
For the molecule B1, in assay [6], the dissociation constant Kd (usually the free concentration of one partner at which half of the binding sites on the other are occupied at equilibrium, for simple one-to-one binding) stood at 48.7 nM.
